The test system of data set [1] is human monocytes. Description: Measurement of Ca2+ influx in monocytes (Indo-1 AM). The conditions noted are these: for Induction of Ca2+ influx in human monocytes by chemokine: 100 ng/ml. Type of data set: cell-based. The method, then:
Intracellular concentrations of Ca^2+ were measured by using Indo-1 AM according to a previously described method (Lopez, et al., Cytometry 10:165-73 (1989)). Purified monocytes were resuspended in HBSS containing 1 mM Ca^2+, 1 mM Mg^2+, and 5% autologous serum, and incubated with […] Indo-1 AM for 45 min at 37° C. The cells were washed once, resuspended in the same buffer, and stimuli and inhibitors were added at the time points specified in the Figure Legends. Intracellular Ca^2+ concentration was measured by monitoring light emission at 405 and 485 nm to an excitation wavelength of 355 nm, using an AMINCO-Bowman series 2 luminescence spectrometer (Rochester, N.Y.).

For data set [2], the system named is monocytes. The class given is cell-based, human. The conditions noted are these: 1 μg/ml of PTX; data not shown. The method, then:
The possibility that G-proteins might be involved in galectin-3-induced monocyte migration was tested using the inhibitor pertussis toxin (PTX), because it is well known that many chemoattractants, including all chemokines, utilize G-protein-coupled receptors to transduce signals into the cell (Baggiolini, Nature 392:565-68 (1998)).

Data set [3] has as its system human peripheral blood monocytes. Description: Monocyte migration assay in vitro (96-well micro Boyden chamber). Type of data set: cell-based. The settings on record: for inhibition at 10000 µM: Homo sapiens, Monocyte, 10 mM lactose, read-out: Inhibition of galectin-3-induced monocyte migration. The text has this: Human monocytes were purified from venous blood of normal volunteers essentially as described previously (Nakagawara, et al., J. Clin. Invest. 68:1243-53 (1981)). In brief, after erythrocytes were sedimented by addition of 6% dextran saline solution (I part to 5 parts heparinized blood), the leukocytes were collected, washed twice, and resuspended in Ca^2+ and Mg^2+-free HBSS containing 5% autologous serum. Mononuclear cells were acquired by centrifugation of the leukocyte suspension on Ficoll Paque at 1,500 rpm for 15 min. The cells were resuspended in RPMI 1640 containing 10% autologous serum and allowed to adhere to sterile tissue culture plates for 30 min in a humidified incubator at 5% CO2 and 37° C. After incubation, non-adherent cells were removed by washing the plates three times with PBS at 37° C. […] To detach and harvest the adhered monocytes, 1 mM EDTA-PBS containing 5% serum was added and the plates were incubated on ice for 30 min. The monocytes were washed twice with HBSS and resuspended in RPMI 1640 with 0.1% autologous serum for the migration assay. The viability of monocytes was determined by trypan blue exclusion and was more than 98%. In some experiments, monocytes were purified according to another method using a Percoll discontinuous gradient described previously (Chuluyan & Issekutz, J. Clin. Invest. 92:2768-77 (1993)).
(§1) Monocyte migration was examined by using 96-well micro Boyden chambers with 5 μm-pore size filters (Neuro Probe, Inc., Gaithersburg, Md.) as described previously (Falk, et al., J. Immunol. Meth. 33:239-47 (1980)), Chertov, et al., J. Biol. Chem. 271:2935-40 (1996)). Briefly, after the indicated concentrations of galectin-3 in RPMI 1640 were applied to the lower chambers, purified monocyte suspensions (2.5-5.0×10^4/well) were applied to the upper chambers. After incubation of the chambers for 1 h in a humidified incubator at 5% CO2 and 37° C., the filters were washed once with PBS and processed with Wright stain. The number of monocytes on the bottom side of the filters was counted in 5 to 10 high-power fields. Monocyte migration was calculated from the average numbers of the counted cells and expressed as % of input cells in a well.
In assays using inhibitory reagents, the purified monocytes were pretreated with or without the indicated concentrations of B2C10 (Liu, et al., Biochemistry 35:[…] (1996)) or anti-DNP IgG1 (Liu, et al., J. Immunol. 124:2728-31 (1980)) as an isotype-matched control mAb, galectin-3C, or PTX at 37° C. for 30 min. Then the cells were applied to the upper chambers in the presence of these inhibitors at the same concentrations used in the pretreatment. In the assays using lactose and sucrose, the sugars were added to the lower chambers at the initiation of the migration assay.

Data set [4] concerns human alveolar macrophages. Description: Migration of human alveolar macrophages in vitro. The class given is cell-based.
Source text: (§2) Human macrophages were obtained by culturing peripheral blood monocytes in vitro for 7 days as previously described (Fantuzzi, et al., Blood 94:875-83 (1999)). Human alveolar macrophages were obtained from bronchoalveolar lavage (BAL) fluid according to a previously described protocol (Sugimoto et al, Am. Rev. Respir. Dis. 139:1329-35 (1989)). The purity of the macrophages was over 90% and the viability was over 99%.
as §1

Data set [5] has as its system cultured human peripheral blood macrophages. Description: Migration of cultured human peripheral blood macrophages in vitro. The settings on record: confirmed by applicant (FIG. 9). Type of data set: cell-based.
Source text: as §2, §1

Like-named read-outs stand apart in the source and are kept apart here.

Consider SDF-1α, for which the “Induction of Ca2+ influx in human monocytes by chemokine” value in data set [1] is recorded as “induced a Ca^2+ influx”.

As for “pertussis toxin [PTX, reference compound]”, in data set [1] (1 μg/ml of PTX, 100 ng/ml MCP-1), the “Effect of PTX on MCP-1-induced Ca2+ influx” value is listed as “blocked”. In data set [1] (1 μg/ml of PTX, 1 μM galectin-3), the “Effect of PTX on galectin-3-induced Ca2+ influx” value is reported as “blocked”. Also, the Viability of monocytes entry in data set [2] is given as “did not decrease the viability”. In addition, in data set [3] (1 μg/ml of PTX, all MCP-1 concentrations examined), the “Inhibition of MCP-1-induced monocyte migration” value is recorded as “significantly inhibited”. Further, the “Decrease of galectin-3-induced monocyte migration” value in data set [3] (PTX, 1 μM galectin-3, p<0.01, n=5) was determined as 91.2%. The “Inhibition of galectin-3-induced monocyte migration” value in data set [3] (PTX, 10 or 100 nM galectin-3, p=0.8501 and 0.3093, n=5) was “did not significantly inhibit”.

As for `OC[C@H]1O[C@@](CO)(O[C@H]2O[C@H](CO)[C@@H](O)[C@H](O)[C@H]2O)[C@@H](O)[C@@H]1O` [sucrose, reference compound], in data set [1] (5 mM sucrose, 1 μM galectin-3), the “Inhibition of galectin-3-induced Ca2+ influx” value is “not”. For the same compound, in data set [3] (sucrose 5 mM or 10 mM, negative control sugar), the “Effect on galectin-3-induced monocyte migration” value is recorded as “no significant effect”.

Consider “MCP-1: human recombinant MCP-1, a strong chemoattractant for monocytes (Pepro Tech)”, for which the “Induction of Ca2+ influx in human monocytes by chemokine” value in data set [1] is given as “induced a Ca^2+ influx”. Also, the “Effect on alveolar macrophage migration” value in data set [4] (FIG. 10, exp. 1) is recorded as “no effect”; in data set [4] (FIG. 10, exp. 2), “negligible effect”. The “Response of cultured human macrophages to MCP-1” value in data set [5] is listed as “do not respond”. Besides, in data set [3] (dose-response experiments, also printed as 11.6 nM), the “Concentration that induced maximum monocyte migration” value worked out at 100 ng/mL.

Turning to `OC[C@H]1O[C@@H](O[C@H]2[C@H](O)[C@@H](O)C(O)O[C@@H]2CO)[C@H](O)[C@@H](O)[C@H]1O` (some centres unmarked) [lactose, reference compound], in data set [1] (5 mM lactose, 100 ng/ml MCP-1), the “Inhibition of MCP-1-induced Ca2+ influx” value was “not”. The “Inhibition of galectin-3-induced Ca2+ influx” value in data set [1] (5 mM lactose, 1 μM galectin-3) is “complete inhibition”. For the same compound, in data set [3] (5 mM and 10 mM lactose), the “Effect on monocyte migration induced by MCP-1” value is recorded as “did not affect”. Also, the “Decrease of galectin-3-induced monocyte migration” value in data set [3] (5 mM lactose, 10 nM galectin-3, p<0.05, n=3) turned out to be 63.8%; in data set [3] (5 mM lactose, 100 nM galectin-3, p<0.05, n=3), 71.5%; in data set [3] (5 mM lactose, 1 μM galectin-3, p<0.05, n=3) it was 57.6%. Besides, the inhibition at 10000 µM was 78% in data set [3] (10 nM galectin-3, p<0.05, n=3); 74.1% in data set [3] (100 nM galectin-3, p<0.05, n=3); 71.1% in data set [3] (1 μM galectin-3, p<0.05, n=3).
